For the assay, the system named is Tetranychus urticae. Briefly: Tetranychus urticae control test. The conditions noted are these: diluted emulsifiable concentrate 500 ppm sprayed on bean seedlings; female adults; eight days after the treatment; 25° C. Format: in vivo. As to the method:
Test Example-4: Tetranychus urticae Control Test
Ten female adults of Tetranychus urticae were released on each of bean seedlings grown in a plastic cup. One day after the release, the bean seedlings were placed on a turntable, and 30 mL of a diluted emulsifiable concentrate (500 ppm) prepared according to Formulation Example 3 was uniformly sprayed thereon by means of a spray gun. After the treatment, the seedlings were placed in a constant temperature chamber at 25° C. (with lighting for 16 hours). Eight days after the treatment, the number of surviving parasitic insects was investigated, and the preventive value (%) was calculated according to the following calculating formula (b). Test was conducted in duplicate. Preventive value (%)={1−(number of parasitic insects on investigation day in treatment plot/number of parasitic insects on investigation day in non-treatment plot)}×100 Formula (b): […]

Our source for the preventive value values is US11046659B2, “1,2,3-triazole derivative and insecticide and acaricide containing said derivative as active ingredient” (HOKKO CHEMICAL INDUSTRY CO., LTD., priority 2015, dated 2021).

As for `CCS(=O)(=O)c1cc(C(F)(F)F)cnc1-n1cc(-c2ccc(C(F)(F)F)cc2)nn1` [1-834], the preventive value is recorded as at least 80%.
